The values that follow come from patent US9321756B2, “Azole compounds as PIM inhibitors” (priority 2011, dated 2016).

Read-outs that look alike come from different tables or passages of the source. Some results are limits rather than exact numbers.

The target in test [1] is full length recombinant Pim-1 (Homo sapiens (Human), UniProt P11309). Briefly: Pim enzyme assay (HTRF, phosphorylation of biotinylated-BAD (S112) peptide), Pim-1. The test is classed as biochemical. The conditions noted are these: read-out: Pim_1_IC50. (In general: TR-FRET usually uses a lanthanide donor and a delayed reading to cut background.)
Sequence of full length recombinant Pim-1 (P11309 whole entry): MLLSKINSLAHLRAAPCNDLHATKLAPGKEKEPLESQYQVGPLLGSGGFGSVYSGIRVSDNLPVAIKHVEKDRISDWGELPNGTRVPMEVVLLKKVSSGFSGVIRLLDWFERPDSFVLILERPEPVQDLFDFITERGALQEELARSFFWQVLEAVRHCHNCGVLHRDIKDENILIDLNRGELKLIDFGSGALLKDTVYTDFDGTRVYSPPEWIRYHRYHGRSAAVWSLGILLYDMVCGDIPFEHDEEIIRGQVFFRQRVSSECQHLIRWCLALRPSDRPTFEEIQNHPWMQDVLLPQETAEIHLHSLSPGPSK
Test [2] addresses full length recombinant Pim-2 (Homo sapiens (Human), UniProt Q9P1W9). Briefly: Pim enzyme assay (HTRF, phosphorylation of biotinylated-BAD (S112) peptide), Pim-2. The test is classed as biochemical. Conditions: read-out: Pim2_IC50.
Test [3] deals with full length recombinant Pim-3 (Homo sapiens (Human), UniProt Q86V86). Put plainly: Pim enzyme assay (HTRF, phosphorylation of biotinylated-BAD (S112) peptide), Pim-3. It counts as biochemical. The conditions noted are these: read-out: Pim3 IC50. A digest of the protocol: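 Full-length recombinant Pim-3 phosphorylated biotinylated BAD (S112) peptide in 60 mM Hepes pH 7.0, 0.05% BSA, 2 mM DTT for 1 h 30 min at 22 °C. After EDTA stop, HTRF was read with Eu anti-phospho-BAD and streptavidin-APC. IC50 came from 4-parameter logistic fit of percent-of-control values.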

In test [4] the test system is Pim-1 stably transfected U2OS human osteogenic sarcoma line. Briefly: Pim cell assay U2OS (phospho-BAD normalized against total BAD), Pim-1 transfected. It counts as cell-based. Conditions: Homo sapiens, U2OS.
The subject of test [5] is Pim-2 stably transfected U2OS human osteogenic sarcoma line. Briefly: Pim cell assay U2OS (phospho-BAD normalized against total BAD), Pim-2 transfected. The test is classed as cell-based. Conditions: Homo sapiens, read-out: U2OS Pim2_Cell_IC50.
The mark [6] stands for this setting: read-out: U2OS Pim1_Cell_IC50, U2OS cells, Pim-1 transfected.

Sequence of full length recombinant Pim-2 (Q9P1W9 whole entry): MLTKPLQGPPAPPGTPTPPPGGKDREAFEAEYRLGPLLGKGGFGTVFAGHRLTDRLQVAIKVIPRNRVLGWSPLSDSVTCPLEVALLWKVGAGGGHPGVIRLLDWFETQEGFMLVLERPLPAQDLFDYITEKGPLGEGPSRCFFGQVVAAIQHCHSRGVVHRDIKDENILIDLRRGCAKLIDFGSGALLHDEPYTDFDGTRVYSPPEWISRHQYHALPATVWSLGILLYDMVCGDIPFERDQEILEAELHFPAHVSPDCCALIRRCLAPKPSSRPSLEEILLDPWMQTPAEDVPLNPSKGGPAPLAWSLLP

For `Nc1nnc(-c2ccc3[nH]cc(-c4cccc(-c5ccc(Cl)cc5)n4)c3c2)s1` [Example 31, 5-(3-(6-(4-chlorophenyl)pyridin-2-yl)-1H-indol-5-yl)-1,3,4-thiadiazol-2-amine], the IC50 in test [1] is 0.0374 µM; in test [2], 0.0755 µM; in test [3] it was 0.0136 µM; in test [4] (setting [6]), 1.09 µM; in test [5] (U2OS cells, Pim-2 transfected), 28.3 µM.
Regarding `CC(C)Oc1cccc(-c2c[nH]c3ccc(-c4nnc(N5CC[C@@H](N)C5)s4)cc23)n1` [Example 33, (R)-1-(5-(3-(6-Isopropoxypyridin-2-yl)-1H-indol-5-yl)-1,3,4-thiadiazol-2-yl)pyrrolidin-3-amine 2,2,2-trifluoroacetate], the IC50 in test [1] (Pim-1 enzyme assay) amounted to 0.00884 µM; in test [2], 0.0167 µM; in test [3], 0.00132 µM; in test [4] (setting [6]), 0.328 µM; in test [5] (U2OS), 19.5 µM.
In the case of `CC(C)Oc1cccc(-c2c[nH]c3ccc(-c4nnc(N5CC[C@H](N)C5)s4)cc23)n1` [Example 34, (S)-1-(5-(3-(6-Isopropoxypyridin-2-yl)-1H-indol-5-yl)-1,3,4-thiadiazol-2-yl)pyrrolidin-3-amine 2,2,2-trifluoroacetate], the IC50 in test [1] (Pim-1 enzyme assay) was 0.0105 µM; in test [2], 0.0248 µM; in test [3], 0.00151 µM; in test [4] (setting [6]), 0.28 µM; in test [5] (U2OS) it was above 31.6 µM.
With `Cc1nnc(-c2ccc3[nH]cc(-c4cccc(OC(C)C)n4)c3c2)o1` [Example 42, 2-(3-(6-isopropoxypyridin-2-yl)-1H-indol-5-yl)-5-methyl-1,3,4-oxadiazole], the IC50 in test [1] (Pim-1 enzyme assay) worked out at 0.0212 µM; in test [2] (Pim-2 enzyme assay), 0.0386 µM; in test [3] (Pim-3 enzyme assay), 0.01 µM; in test [4] (read-out: U2OS Pim1_Cell_IC50) it was 0.273 µM; in test [5] (U2OS cells, Pim-2 transfected), 15.6 µM.
On the same counts, the results for `CC(C)Nc1nnc(-c2ccc3[nH]cc(-c4cncc(C5CC5)n4)c3c2)o1` [Example 46, 5-(3-(6-cyclopropylpyrazin-2-yl)-1H-indol-5-yl)-N-isopropyl-1,3,4-oxadiazol-2-amine] are 0.00139 µM, 0.00425 µM, 0.000498 µM, 0.0321 µM and 0.827 µM.
Take `c1cc2[nH]cc(-c3cncc(C4CC4)n3)c2cc1-c1nnc(NC2CC2)o1` [Example 49, N-cyclopropyl-5-(3-(6-cyclopropylpyrazin-2-yl)-1H-indol-5-yl)-1,3,4-oxadiazol-2-amine]: the IC50 in test [1] (Pim-1 enzyme assay) came to 0.00343 µM; in test [2] (Pim-2 enzyme assay) it was 0.00764 µM; in test [3] (Pim-3 enzyme assay) it was 0.00182 µM; in test [4] (read-out: U2OS Pim1_Cell_IC50) it was 0.0834 µM; in test [5] (U2OS cells, Pim-2 transfected), 2.68 µM.
Consider `CN1CCN(c2cccc(-c3c[nH]c4ccc(-c5nnc(N)o5)cc34)n2)CC1` [Example 75, 5-(3-(6-(4-methyl-1-piperazinyl)-2-pyridinyl)-1H-indol-5-yl)-1,3,4-oxadiazol-2-amine], for which the IC50 amounted to 0.00382 µM in test [1] (Pim-1 enzyme assay); 0.00687 µM in test [2] (Pim-2 enzyme assay); 0.00254 µM in test [3] (Pim-3 enzyme assay); 0.173 µM in test [4] (read-out: U2OS Pim1_Cell_IC50); 2.35 µM in test [5] (U2OS cells, Pim-2 transfected).
Take `CC(C)Oc1cncc(-c2c[nH]c3ccc(-c4nnc(N)o4)cc23)n1` [Example 76, 5-(3-(6-(1-methylethoxy)-2-pyrazinyl)-1H-indol-5-yl)-1,3,4-oxadiazol-2-amine]: the IC50 was found to be 0.00559 µM in test [1] (Pim-1 enzyme assay); 0.00518 µM in test [2] (Pim-2 enzyme assay); 0.00247 µM in test [3] (Pim-3 enzyme assay); 0.0358 µM in test [4] (read-out: U2OS Pim1_Cell_IC50); 0.636 µM in test [5] (U2OS cells, Pim-2 transfected).
Turning to `Nc1nnc(-c2ccc3[nH]cc(-c4cccc(-n5cccn5)n4)c3c2)o1` [Example 77, 5-(3-(6-(1H-pyrazol-1-yl)-2-pyridinyl)-1H-indol-5-yl)-1,3,4-oxadiazol-2-amine], the IC50 in test [1] (Pim-1 enzyme assay) was determined as 0.0119 µM; in test [2] (Pim-2 enzyme assay) it was 0.0137 µM; in test [3] (Pim-3 enzyme assay), 0.00413 µM; in test [4] (setting [6]), 0.112 µM; in test [5] (U2OS cells, Pim-2 transfected) it was 1.89 µM.
On to `Nc1nnc(-c2ccc3[nH]cc(-c4cccc(F)c4F)c3c2)o1` [Example 78, 5-(3-(2,3-difluorophenyl)-1H-indol-5-yl)-1,3,4-oxadiazol-2-amine], for which the IC50 in test [1] (Pim-1 enzyme assay) was found to be 0.103 µM; in test [2] (Pim-2 enzyme assay), 0.164 µM; in test [3] (Pim-3 enzyme assay), 0.0543 µM; in test [4] (read-out: U2OS Pim1_Cell_IC50), 1.11 µM; in test [5] (U2OS cells, Pim-2 transfected) it was 18.7 µM.
Regarding `CC(C)Cn1cc(-c2c[nH]c3ccc(-c4nnc(N)o4)cc23)cn1` [Example 80, 5-(3-(1-(2-methylpropyl)-1H-pyrazol-4-yl)-1H-indol-5-yl)-1,3,4-oxadiazol-2-amine], the IC50 was determined as 0.047 µM in test [1] (Pim-1 enzyme assay); 0.078 µM in test [2] (Pim-2 enzyme assay); 0.0671 µM in test [3] (Pim-3 enzyme assay); 0.142 µM in test [4] (read-out: U2OS Pim1_Cell_IC50); 3.66 µM in test [5] (U2OS cells, Pim-2 transfected).
As for `CC(C)Oc1ccc(F)c(-c2c[nH]c3ccc(-c4nnc(N)o4)cc23)c1` [Example 83, 5-(3-(2-fluoro-5-(1-methylethoxy)phenyl)-1H-indol-5-yl)-1,3,4-oxadiazol-2-amine], the IC50 in test [1] (Pim-1 enzyme assay) was found to be 0.0593 µM; in test [2] (Pim-2 enzyme assay) it was 0.193 µM; in test [3] (Pim-3 enzyme assay), 0.0362 µM; in test [4] (setting [6]) it was 0.725 µM; in test [5] (U2OS cells, Pim-2 transfected), 18.5 µM.
Take `CC(C)Oc1cccc(-c2c[nH]c3ccc(-c4nnc(N)o4)cc23)n1` [Example 87, 5-(3-(6-(1-methylethoxy)-2-pyridinyl)-1H-indol-5-yl)-1,3,4-oxadiazol-2-amine]: the IC50 in test [1] (Pim-1 enzyme assay) stood at 0.00415 µM; in test [2] (Pim-2 enzyme assay), 0.00546 µM; in test [3] (Pim-3 enzyme assay), 0.00111 µM; in test [4] (read-out: U2OS Pim1_Cell_IC50) it was 0.0451 µM; in test [5] (U2OS cells, Pim-2 transfected), 0.823 µM.
For the compound `Nc1nnc(-c2ccc3[nH]cc(-c4cncc(N5CCC(F)(F)C5)n4)c3c2)o1` [Example 88, 5-(3-(6-(3,3-difluoro-1-pyrrolidinyl)-2-pyrazinyl)-1H-indol-5-yl)-1,3,4-oxadiazol-2-amine], the IC50 in test [1] (Pim-1 enzyme assay) stood at 0.00192 µM; in test [2] (Pim-2 enzyme assay), 0.00643 µM; in test [3] (Pim-3 enzyme assay), 0.0016 µM; in test [4] (read-out: U2OS Pim1_Cell_IC50) it was 0.0407 µM; in test [5] (U2OS cells, Pim-2 transfected) it was 0.464 µM.
On to `Nc1nnc(-c2ccc3[nH]cc(-c4cncc(N5CCCCC5)n4)c3c2)o1` [Example 89, 5-(3-(6-(1-piperidinyl)-2-pyrazinyl)-1H-indol-5-yl)-1,3,4-oxadiazol-2-amine], for which the IC50 was 0.00211 µM in test [1] (Pim-1 enzyme assay); 0.00477 µM in test [2] (Pim-2 enzyme assay); 0.00183 µM in test [3] (Pim-3 enzyme assay); 0.0599 µM in test [4] (setting [6]); 0.692 µM in test [5] (U2OS cells, Pim-2 transfected).
For `Nc1nnc(-c2ccc3[nH]cc(-c4cncc(N5CCOCC5)n4)c3c2)o1` [Example 90, 5-(3-(6-(4-morpholinyl)-2-pyrazinyl)-1H-indol-5-yl)-1,3,4-oxadiazol-2-amine], the IC50 came out at 0.00891 µM in test [1] (Pim-1 enzyme assay); 0.0134 µM in test [2] (Pim-2 enzyme assay); 0.00645 µM in test [3] (Pim-3 enzyme assay); 0.374 µM in test [4] (read-out: U2OS Pim1_Cell_IC50); 5.42 µM in test [5] (U2OS cells, Pim-2 transfected).
On the same counts, the results for `C[C@H]1COCCN1c1ccnc(-c2c[nH]c3ccc(-c4nnc(N)o4)cc23)n1` [Example 91, 5-(3-(4-((3S)-3-methyl-4-morpholinyl)-2-pyrimidinyl)-1H-indol-5-yl)-1,3,4-oxadiazol-2-amine] are 0.00196 µM, 0.00107 µM, 0.00221 µM, 0.221 µM and 1.05 µM.
For the compound `Nc1nnc(-c2ccc3[nH]cc(-c4nccc(C5CC5)n4)c3c2)o1` [Example 94, 5-(3-(4-cyclopropyl-2-pyrimidinyl)-1H-indol-5-yl)-1,3,4-oxadiazol-2-amine], the IC50 in test [1] (Pim-1 enzyme assay) was found to be 0.00519 µM; in test [2] (Pim-2 enzyme assay) it was 0.000984 µM; in test [3] (Pim-3 enzyme assay) it was 0.000998 µM; in test [4] (setting [6]), 0.0752 µM; in test [5] (U2OS cells, Pim-2 transfected) it was 0.28 µM.
As to `CC1CCCN1c1ccnc(-c2c[nH]c3ccc(-c4nnc(N)o4)cc23)n1` (centres unmarked) [Example 97, 5-(3-(4-(2-methyl-1-pyrrolidinyl)-2-pyrimidinyl)-1H-indol-5-yl)-1,3,4-oxadiazol-2-amine], the IC50 in test [1] (Pim-1 enzyme assay) came out at 0.00642 µM; in test [2] (Pim-2 enzyme assay) it was 0.0017 µM; in test [3] (Pim-3 enzyme assay), 0.00122 µM; in test [4] (read-out: U2OS Pim1_Cell_IC50), 0.1 µM; in test [5] (U2OS cells, Pim-2 transfected), 0.315 µM.
On the same counts, the results for `Nc1nnc(-c2ccc3[nH]cc(-c4cncc(C5CC5)n4)c3c2)o1` [Example 98, 5-(3-(6-cyclopropyl-2-pyrazinyl)-1H-indol-5-yl)-1,3,4-oxadiazol-2-amine] are 0.00434 µM, 0.00485 µM, 0.00159 µM, 0.0857 µM and 0.721 µM.
For the compound `Nc1nnc(-c2ccc3[nH]cc(-c4cncc(O[C@@H]5CCCNC5)n4)c3c2)o1` [Example 99, 5-(3-(6-((3R)-3-piperidinyloxy)-2-pyrazinyl)-1H-indol-5-yl)-1,3,4-oxadiazol-2-amine], the IC50 is 0.00677 µM in test [1] (Pim-1 enzyme assay); 0.0129 µM in test [2] (Pim-2 enzyme assay); 0.0124 µM in test [3] (Pim-3 enzyme assay); 12.2 µM in test [4] (setting [6]); above 31.6 µM in test [5] (U2OS cells, Pim-2 transfected).
Regarding `Nc1nnc(-c2ccc3[nH]cc(-c4cncc(NCC5CC5)n4)c3c2)o1` [Example 100, 6-(5-(5-amino-1,3,4-oxadiazol-2-yl)-1H-indol-3-yl)-N-(cyclopropylmethyl)-2-pyrazinamine], the IC50 in test [1] (Pim-1 enzyme assay) was 0.00116 µM; in test [2] (Pim-2 enzyme assay), 0.00207 µM; in test [3] (Pim-3 enzyme assay) it was 0.000668 µM; in test [4] (read-out: U2OS Pim1_Cell_IC50), 0.0417 µM; in test [5] (U2OS cells, Pim-2 transfected), 0.551 µM.
